Assay [1] concerns the target Secretin receptor (Homo sapiens) (UniProt P47872). Briefly: Agonist activity at secretin receptor expressed in CHO cells assessed as increase of cAMP level at 1 uM. In kind it is functional, cell-based.
The target is the same in assay [2]. Briefly: Displacement of [125I]-secretin-27 from secretin receptor expressed in CHO cells at 1 uM by gamma-spectrometer analysis. It is filed as cell-based. For orientation: In a radioligand displacement assay an active substance lowers the binding of a labelled ligand.

Molecules are shown by their SMILES. Active and inactive are the calls of the source. The calls are words filed in the database; no cut-off is given here. Where a SMILES comes first, the peptide text is derived from it. Bridges are numbered along the chain shown (N, C = ends).

Sequence of Secretin receptor (Homo sapiens) (P47872 whole entry): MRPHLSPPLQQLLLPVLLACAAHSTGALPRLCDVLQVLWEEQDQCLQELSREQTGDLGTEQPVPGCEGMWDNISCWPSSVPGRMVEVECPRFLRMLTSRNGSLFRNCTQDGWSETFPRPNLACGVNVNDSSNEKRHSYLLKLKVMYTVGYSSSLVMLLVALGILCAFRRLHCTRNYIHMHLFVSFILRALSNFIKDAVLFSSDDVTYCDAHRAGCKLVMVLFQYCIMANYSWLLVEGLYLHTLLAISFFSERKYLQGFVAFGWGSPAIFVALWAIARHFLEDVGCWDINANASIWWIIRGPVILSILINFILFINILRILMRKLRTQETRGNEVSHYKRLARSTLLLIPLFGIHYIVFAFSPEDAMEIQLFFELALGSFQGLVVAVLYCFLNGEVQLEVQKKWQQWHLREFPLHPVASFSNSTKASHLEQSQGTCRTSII

For the compound `CC(C)C[C@H](NC(=O)CNC(=O)[C@H](CCC(N)=O)NC(=O)[C@H](CC(C)C)NC(=O)[C@H](CC(C)C)NC(=O)[C@H](CCCNC(=N)N)NC(=O)[C@H](CCC(N)=O)NC(=O)[C@H](CC(C)C)NC(=O)[C@H](CCCNC(=N)N)NC(=O)[C@H](C)NC(=O)[C@H](CO)NC(=O)[C@H](CC(=O)O)NC(=O)[C@H](CCC(N)=O)NC(=O)[C@H](CC(C)C)NC(=O)[C@H](CCCNC(=N)N)NC(=O)[C@H](CO)NC(=O)[C@H](Cc1ccc(O)cc1)NC(=O)[C@H](CCC(=O)O)NC(=O)[C@H](CO)NC(=O)[C@@H](NC(=O)[C@H](Cc1ccccc1)NC(=O)[C@@H]1CSSC[C@H](NC(=O)[C@H](CO)NC(=O)[C@@H](N)Cc2cnc[nH]2)C(=O)NCC(=O)N1)[C@@H](C)O)C(=O)N[C@H](C(N)=O)C(C)C` (H-HSCGCFTSEYSRLQDSARLQRLLQGLV-NH2; disulfide 3-5), the result in assay [1] and in assay [2] was Active.
For the compound `CC(C)C[C@H](NC(=O)CNC(=O)[C@H](CCC(N)=O)NC(=O)[C@H](CC(C)C)NC(=O)[C@H](CC(C)C)NC(=O)[C@H](CCCNC(=N)N)NC(=O)[C@H](CCC(N)=O)NC(=O)[C@H](CC(C)C)NC(=O)[C@H](CCCNC(=N)N)NC(=O)[C@H](C)NC(=O)[C@H](CO)NC(=O)[C@H](CC(=O)O)NC(=O)[C@H](CCC(N)=O)NC(=O)[C@H](CC(C)C)NC(=O)[C@H](CCCNC(=N)N)NC(=O)[C@H](CO)NC(=O)[C@H](Cc1ccc(O)cc1)NC(=O)[C@H](CCC(=O)O)NC(=O)[C@H](CO)NC(=O)[C@@H]1CSSC[C@H](NC(=O)[C@H](CC(=O)O)NC(=O)[C@H](CO)NC(=O)[C@@H](N)Cc2cnc[nH]2)C(=O)N[C@@H]([C@@H](C)O)C(=O)N[C@@H](Cc2ccccc2)C(=O)N1)C(=O)N[C@H](C(N)=O)C(C)C` (H-HSDCTFCSEYSRLQDSARLQRLLQGLV-NH2; disulfide 4-7), the outcome in assay [1] and in assay [2] was Active.
With `CC(C)C[C@H](NC(=O)CNC(=O)[C@H](CCC(N)=O)NC(=O)[C@H](CC(C)C)NC(=O)[C@H](CC(C)C)NC(=O)[C@H](CCCNC(=N)N)NC(=O)[C@H](CCC(N)=O)NC(=O)[C@H](CC(C)C)NC(=O)[C@H](CCCNC(=N)N)NC(=O)[C@H](C)NC(=O)[C@H](CO)NC(=O)[C@H](CC(=O)O)NC(=O)[C@H](CCC(N)=O)NC(=O)[C@H](CC(C)C)NC(=O)[C@H](CCCNC(=N)N)NC(=O)[C@H](CO)NC(=O)[C@H](Cc1ccc(O)cc1)NC(=O)[C@@H]1CSSC[C@H](NC(=O)[C@H](Cc2ccccc2)NC(=O)[C@@H](NC(=O)CNC(=O)[C@H](CC(=O)O)NC(=O)[C@H](CO)NC(=O)[C@@H](N)Cc2cnc[nH]2)[C@@H](C)O)C(=O)N[C@@H](CO)C(=O)N1)C(=O)N[C@H](C(N)=O)C(C)C` (H-HSDGTFCSCYSRLQDSARLQRLLQGLV-NH2; disulfide 7-9), the outcome in assay [1] was Active.

Values taken from ChEMBL document CHEMBL1255171.
